# According to US9435807B2, “Use of leucyl tRNA synthetase” (Medicinal Bioconvergence Research Center, priority 2011, dated 2016):
# What was measured:
# [1] = target: T1, LRS / RagD binding (Homo sapiens, UniProt Q9NQL2+Q9P2J5); assay: In vitro pull-down of RagD with GST-LRS
# T1 construct: made in house; RagD: 293T cell lysate
# Procedure: In FIG. 6c, purified GST or GST-LRS protein was incubated with HA-RagD transfected cell lysates in the presence of GDPβS or GTPγS. The co-precipitated RagD was determined by immunoblotting with anti-HA antibody.
# In FIG. 10a, the effect of tRNA on in vitro LRS-RagD binding. 293T cell lysates were incubated with purified GST or GST-fused LRS in the presence of the combinations of leucine (0.1 mM), ATP (0.1 mM), and tRNA^Leu (25 μg). The precipitated RagD was determined by immunoblotting with anti-RagD antibody.
# Recombinant LRS or RagD fragment proteins were expressed as GST fusion proteins and purified by glutathione sepharose. The interactions between RagD fragments and myc-LRS overexpressed cell lysates or between LRS fragments and HA-RagD overexpressed cell lysates were tested using in vitro binding assays. Binding assay was conducted in 25 mM Tris-HCl buffer (pH7.4) containing 10 mM NaCl, 1 mM MgCl2, 1 mM EDTA, 0.5 mM EGTA, and 0.5% Triton X-100.
# [2] = tested on: mTORC1; assay: S6K phosphorylation (mTORC1 activation) by immunoblotting in HeLa cells; assay type: cell-based; conditions: for S6K phosphorylation by the leucine analogue itself: HeLa cells starved 1 hour of leucine, 0.8 or 8 mM analogue; for leucine-induced S6K phosphorylation: HeLa cells, preincubated with 0.8 or 8 mM analogue, then 0.8 mM leucine 5 min
# Procedure: (§1) In FIG. 9b, HeLa cells were starved for 1 hour of leucine and preincubated with either 0.8 or 8 mM leucinol or leucine amide. After 5 min, 0.8 mM leucine was added. After 5 min incubation, cells were harvested and S6K phosphorylation was determined by immunoblotting.
# (§2) For leucine depletion, cells were rinsed with leucine-free DMEM twice, incubated in leucine-free DMEM for 60 minutes, and stimulated with […] leucine for 5-60 minutes. For amino acid starvation, cells were rinsed with and incubated in DPBS containing 25 mM glucose, 1 mM sodium pyruvate, lx MEM vitamins for 60 minutes, and replaced with and incubated in DMEM for 5-60 minutes.
# (§3) Cells were dissolved in the lysis buffer containing 1% Triton X-100, 40 mM HEPES (pH7.4), 2 mM EDTA, 10 mM pyrophosphate, 10 mM glycerophosphate, and protease inhibitor cocktail. The lysates were centrifuged at 13,000 rpm for 30 minutes. We then fractionated 20 μg of the extracted proteins by SDS-PAGE. For immunoprecipitations, the cells were lysed (50 mM Tris-HCL (pH 7.4), 10 mM NaCl, 1 mM EDTA, 0.5 mM EGTA, 1 mM MgCl2, 0.1% CHAPS, and 0.5% Triton X-100, 1 mM phenylmethylsulfonyl fluoride) and the primary antibodies were added to the lysates and incubated with rotation for 2 hr at 4° C. A 50% slurry of protein agarose G-sepharose was then added and the incubation continued for an additional 4 hr. After washing three times with the ice-cold lysis buffer, the precipitates were dissolved in the SDS sample buffer and separated by SDS-PAGE.
# [3] = tested on: mTORC1; assay: S6K phosphorylation (mTORC1 activation) by immunoblotting in 293T cells; assay type: cell-based; conditions: for EC50: Homo sapiens, HEK-293T; for EC50 / leucine-induced S6K phosphorylation / amino acid-induced S6K phosphorylation: 293T cells; for S6K phosphorylation by the leucine analogue itself: 293T cells starved 1 hour of leucine, 0.8 or 8 mM analogue; for leucine-induced S6K phosphorylation: preincubated with 0.8 or 8 mM analogue, then 0.8 mM leucine 5 min; for amino acid-induced S6K phosphorylation: siRNA 48 hours
# Procedure: as §1, with “FIGS. 9a-9d show the effect of LRS knockdown on leucine- or leucine analogues-stimulated S6K phosphorylation. In” for “In”, “9a, the effect of leucine analogues on leucine-stimulated S6K phosphorylation is shown. 293T” for “9b, HeLa”
# In FIG. 11a, 293T cells were treated with leucine at the indicated concentration for 5 min. Leucine-dependent S6K phosphorylation was determined by immunoblotting. In FIG. 11b, quantitation of p-S6K band in FIG. 11a is shown. EC50 of leucine stimulation of mTORC1 was about […]. In FIG. 11c, kinetic parameters for leucylation and ATP-PPi exchange activity of WT LRS is shown.
# as §2, §3
# [4] = tested on: 293T cells; assay: Cell size determination (FSC of G1 cells, FACS); assay type: cell-based
# Procedure: For measurement of cell size using forward scatter units (FSC) with unfixed cells. 293T cells were plated, washed once with PBS, and resuspended in PBS containing 0.1% serum, 5 mM EDTA, 5 ng/ml propidium iodide (PI; Sigma). Samples were analyzed by FACS analysis (FACS caliber; Becton Dickinson) for cell size (FSC). The mean of FSC of G1 phase cells was determined.
# [5] = tested on: EGFP-LC3 puncta; assay: Autophagy: EGFP-LC3 puncta in siRNA-transfected cells; assay type: cell-based; conditions: starved for leucine and serum for 2 hours
# Procedure: The cells were starved for leucine and serum for 2 hours. Accumulation of EGFP-LC3 in puncta, was monitored.
# T1 sequence (Q9P2J5 whole entry): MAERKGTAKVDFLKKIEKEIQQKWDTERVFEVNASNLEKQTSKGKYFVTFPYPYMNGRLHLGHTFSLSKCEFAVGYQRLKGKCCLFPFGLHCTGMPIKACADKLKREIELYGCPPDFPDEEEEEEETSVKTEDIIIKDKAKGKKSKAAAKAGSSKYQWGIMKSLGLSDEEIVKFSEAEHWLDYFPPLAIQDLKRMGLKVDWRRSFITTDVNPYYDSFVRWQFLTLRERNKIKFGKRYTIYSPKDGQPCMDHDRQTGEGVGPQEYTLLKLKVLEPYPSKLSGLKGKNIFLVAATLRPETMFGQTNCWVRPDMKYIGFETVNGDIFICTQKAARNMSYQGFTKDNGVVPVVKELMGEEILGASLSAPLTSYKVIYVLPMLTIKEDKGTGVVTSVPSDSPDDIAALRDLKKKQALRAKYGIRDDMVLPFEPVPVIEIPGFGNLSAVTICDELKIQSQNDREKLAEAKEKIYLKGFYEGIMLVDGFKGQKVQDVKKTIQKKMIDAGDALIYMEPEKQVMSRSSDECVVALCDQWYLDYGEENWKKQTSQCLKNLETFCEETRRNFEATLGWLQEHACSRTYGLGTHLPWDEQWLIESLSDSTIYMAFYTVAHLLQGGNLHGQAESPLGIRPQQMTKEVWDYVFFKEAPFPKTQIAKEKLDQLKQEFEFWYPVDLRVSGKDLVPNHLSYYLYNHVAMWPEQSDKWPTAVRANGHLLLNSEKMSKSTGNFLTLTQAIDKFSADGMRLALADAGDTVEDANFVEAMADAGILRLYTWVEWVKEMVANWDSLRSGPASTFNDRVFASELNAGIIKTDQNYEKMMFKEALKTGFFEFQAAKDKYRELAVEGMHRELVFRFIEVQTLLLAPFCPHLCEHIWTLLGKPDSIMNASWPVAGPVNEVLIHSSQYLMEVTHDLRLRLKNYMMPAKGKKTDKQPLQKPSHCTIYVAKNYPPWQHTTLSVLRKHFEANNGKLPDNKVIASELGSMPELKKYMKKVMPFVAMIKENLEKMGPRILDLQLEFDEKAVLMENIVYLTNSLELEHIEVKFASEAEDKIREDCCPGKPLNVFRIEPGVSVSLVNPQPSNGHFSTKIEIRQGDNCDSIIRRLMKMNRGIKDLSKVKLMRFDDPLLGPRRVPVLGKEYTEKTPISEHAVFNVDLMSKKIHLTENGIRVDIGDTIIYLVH
# T1 sequence (Q9NQL2 whole entry): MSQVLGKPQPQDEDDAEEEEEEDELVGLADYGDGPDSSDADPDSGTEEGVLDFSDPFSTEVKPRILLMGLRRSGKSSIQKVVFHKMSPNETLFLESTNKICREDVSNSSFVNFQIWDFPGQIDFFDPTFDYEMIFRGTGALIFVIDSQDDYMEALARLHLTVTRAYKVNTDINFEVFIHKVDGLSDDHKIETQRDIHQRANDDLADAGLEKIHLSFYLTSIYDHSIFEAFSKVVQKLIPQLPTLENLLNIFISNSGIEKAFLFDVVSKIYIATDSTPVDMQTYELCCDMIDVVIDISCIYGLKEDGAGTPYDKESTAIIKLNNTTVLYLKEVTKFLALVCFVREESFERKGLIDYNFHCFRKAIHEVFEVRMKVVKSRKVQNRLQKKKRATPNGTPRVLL
compound,measurement,setting,value
Nc1ncnc2c1ncn2[C@@H]1O[C@H](COP(=O)(O)OP(=O)(O)OP(=O)(O)O)[C@@H](O)[C@H]1O [ATP],competition with RagD for LRS binding,"[1]; GST-LRS with 293T cell lysates, ATP 0.1 mM, tRNA^Leu 25 μg",not
Nc1nc2c(ncn2[C@@H]2O[C@H](COP(=O)(O)OP(O)(O)=S)[C@@H](O)[C@H]2O)c(=O)[nH]1 [GDPβS],binding affinity of LRS to RagD,"[1]; GST-LRS with HA-RagD transfected 293T cell lysates, presence of nucleotide analogue",significantly reduced
"CC(C)C[C@H](N)C(=O)O [Leucine, L-Leucine]",EC50,"[2]; Homo sapiens, HeLa cells (data not shown), read-out: EC50 for leucine stimulation of mTORC1",~80 µM
same,EC50,"[3]; 5 min, leucine 5 min, quantitation of p-S6K band (FIG. 11b legend), read-out: EC50 of leucine stimulation of mTORC1",~80 µM
same,EC50,[3]; read-out: EC50 for leucine stimulation of mTORC1,~80 µM
"CC(C)C[C@H](N)C(N)=O [leucinamide, L-Leucinamide]",S6K phosphorylation by the leucine analogue itself,[2],significantly induced
same,leucine-induced S6K phosphorylation,[2],further increased
same,S6K phosphorylation by the leucine analogue itself,[3],significantly induced
same,leucine-induced S6K phosphorylation,[3],further increased
"CC(C)C[C@H](N)CO [leucinol, Leucinol]",S6K phosphorylation by the leucine analogue itself,[2],no effect
same,leucine-induced S6K phosphorylation,[2],inhibited leucine-induced S6K phosphorylation in dose-dependent manner
same,S6K phosphorylation by the leucine analogue itself,[3],no effect
same,leucine-induced S6K phosphorylation,[3],inhibited leucine-induced S6K phosphorylation in dose-dependent manner
"MRS siRNA: siRNA CUACCGCUGGUUUAACAUUUCGUUU, SEQ ID NO 18 (chemistry not given here)",amino acid-induced S6K phosphorylation,[3],not
same,cell size,[4],no effect
"VRS siRNA: siRNA AGAAGAGGAUGUCAUGACCGGUCUC, SEQ ID NO 17 (chemistry not given here)",amino acid-induced S6K phosphorylation,[3],not
same,cell size,[4],no effect
"mTOR siRNA: siRNA GGAAGUACCCUACUUUGCUUGAGGU, SEQ ID NO 15 (chemistry not given here)",LC3 puncta per cell compared to control siRNA,[5],statistically significant increase
same,amino acid-induced S6K phosphorylation,[3],significantly inhibited
